Data on 13 compounds can be found in patent US20260055110A1 (Azura Ophthalmics Ltd., priority 2021, published 2026).

A short description of series [1]: Aqueous Hydrolysis Stability Assay. As to conditions: DPBS pH 7.4, 37° C.
Protocol: Example 2: Aqueous Hydrolysis Stability Assay
Determination of aqueous stability of the test compounds was performed using UPLC-MS. A test compound 10 mM stock solution was prepared in DMSO. 10 μL of the DMSO stock solution was dissolved in 990 μL of DPBS pH 7.4 buffer to prepare a 100 μM stock. A further dilution was made by dissolving 75 μl of 100 μM stock into 225 μL of DPBS. Final DMSO concentration is 0.25%. The solution is kept at 37° C. and injected without delay into the LCMS (Waters Xevo TQ-). Additional injections were performed at appropriate time points.
Half-life (T1/2) of the parent conjugate was calculated using the peak area or measured concentration of the parent conjugate at each time point in the linear region of the log—linear plot.
Series [2] concerns Rabbit Cornea Esterase. Put plainly: Rabbit Cornea Homogenate Stability Assay (Rabbit Cornea Esterase Assay). The series is classed as in vitro ADME. On the procedure:
Example 1: Rabbit Cornea Homogenate Stability Assay […]
Three to four rabbit corneas (e.g., New Zealand Whites (NZW) or Dutch Belted (DB)) of approx. 50 mg each were sliced and scraped with a scalpel and tweezers until reduced to small (1-3 mm), thin pieces. These were transferred into a glass vial containing approximately 2 mL of cold DPBS pH 7.4 buffer.
Sample was cooled intermittently on ice and shear homogenized for 3 minutes, then centrifuged for 3 min at 13,000 g. The supernatant was pipetted off into a vial, and total protein concentration determined at 280 nm. Sample was stored at −78° C.
10 mM Compound DMSO stocks were diluted to 10 μM in a glass vial: 10 μL of 10 mM Compound stock was added to 9,990 μl 50 mM DPBS, pH 7.4 buffer. Esterase homogenate was diluted to 300 ng/μl and 900 ng/μL in DPBS.
A heater shaker was set to 37° C. Into a suitable 96 well plate (Run Plate), 70 μL of 300 or 900 ng/μl esterase homogenate was pipetted into two rows as compounds were analyzed in duplicate (2 min, 5 min, 10 min, 20 min and 45 min). The plate was sealed and then warmed at 37° C. for 5 min.
Two 96 deep-well plates were put on ice (Kill Plates). To these, 990 μL of 50:50 MeCN—H2O were added to required rows, labelled 0 min 2 min, 5 min, 10 min, 20 min and 45 min. The plates were covered to minimize evaporation.
To both rows of the Run Plate, 70 μL of 10 μM compound solution was added. At the appropriate time point, 10 μL of the assay mixture was added to the matching kill plate well containing 990 μL of 50:50 cold MeCN—H2O. Samples were analyzed as soon as practicable by UPLC-MS (Waters Xevo TQ-S).
A heater shaker was set to 37° C. Into a suitable 96 well plate (Run Plate), 80 μL of 300 or 900 ng/μL esterase homogenate was pipetted into two rows as compounds were analyzed in duplicate (2 min, 5 min, 10 min, 20 min and 45 min). The plate was sealed and then warmed at 37° C. for 5 min.
Two 96 shallow-well plates were placed on ice (Kill Plates). To these, 180 μL of 60:40 MeCN-H2O+0.1% acetic acid are added to required rows. The plates were sealed to minimize evaporation.
To both rows of the Run Plate, 80 μL of 10 μM compound solution was added. At the appropriate time point, 20 μL of the assay mixture was added to the matching kill plate well containing 180 μL of 60:40 cold MeCN-H2O+0.1% acetic acid. For lipoic acid analysis, samples were analyzed as soon as practicable by LCMS (Waters Xevo TQ-S). For parent conjugate and parent analysis the samples are diluted further 1 in 10: 20 μL supernatant is added to 180 μL of 50:50 MeCN—H2O.

[3] abbreviates: rabbit cornea homogenate 0.15 mg/mL total protein, NZW, 37° C.
Where [4] appears, read: rabbit cornea homogenate 0.45 mg/mL total protein, NZW, 37° C.
The mark [5] stands for this setting: rabbit cornea homogenate 0.15 mg/mL total protein, DB, 37° C.
Where [6] appears, read: rabbit cornea homogenate 0.45 mg/mL total protein, DB, 37° C.

`CC(OC(=O)CCCC[C@@H]1CCSS1)n1ccc2c(-c3cnn([C@H](CC#N)C4CCCC4)c3)ncnc21` (stereo partly shown) [Compound 38]: the “Aqueous Stability (DPBS) % parent released after t min” value in series [1] (t = 48) was “A (t = 48) (<25%)”. Further, the “Esterase (0.15 mg/mL) % parent released after 45 min” value in series [2] (setting [3]) is reported as “B (NZW) (25% to 50%)”. Also, in series [2] (setting [4]), the “Esterase (0.45 mg/mL) % parent released after 45 min” value is reported as “C (NZW) (51% to 75%)”.

For `C=CC(=O)N1C[C@H](Nc2ncnc3c2ccn3COC(=O)CCCC[C@@H]2CCSS2)CC[C@@H]1C` [Compound 12], the “Aqueous Stability (DPBS) % parent released after t min” value in series [1] (t = 44) was “A (t = 44) (<25%)”. For the same compound, the “Esterase (0.15 mg/mL) % parent released after 45 min” value in series [2] (setting [3]) is “B (NZW) (25% to 50%)”. Moreover, the “Esterase (0.45 mg/mL) % parent released after 45 min” value in series [2] (setting [4]) is listed as “B (NZW) (25% to 50%)”.

As for `CC(C)OC(=O)OC(C)n1ccc2c(-c3cnn([C@H](CC#N)C4CCCC4)c3)ncnc21` (stereo partly shown) [Compound 50], the “Aqueous Stability (DPBS) % parent released after t min” value in series [1] (t = 44) was “B (t = 44) (25% to 50%)”. Also, the “Esterase (0.15 mg/mL) % parent released after 45 min” value in series [2] (setting [5]) was “D (DB) (>75%)”. Further, the “Esterase (0.45 mg/mL) % parent released after 45 min” value in series [2] (setting [6]) was “D (DB) (>75%)”.

In the case of `CC(C)C(=O)OC(C)n1ccc2c(-c3cnn([C@H](CC#N)C4CCCC4)c3)ncnc21` (stereo partly shown) [Compound 48], the “Esterase (0.15 mg/mL) % parent released after 45 min” value in series [2] (setting [3]) is given as “A (NZW) (<25%)”. Moreover, the “Esterase (0.45 mg/mL) % parent released after 45 min” value in series [2] (setting [4]) is on record as “A (NZW) (<25%)”.

Consider `C=CC(=O)N1C[C@H](Nc2ncnc3c2ccn3C(C)OC(=O)OC(C)C)CC[C@@H]1C` (stereo partly shown) [Compound 22], for which the “Esterase (0.15 mg/mL) % parent released after 45 min” value in series [2] (setting [3]) was “D (NZW) (>75%)”. The “Esterase (0.45 mg/mL) % parent released after 45 min” value in series [2] (setting [4]) is “D (NZW) (>75%)”.

Consider `CNS(=O)(=O)CC1CCC(N(C)c2ncnc3c2ccn3COC(=O)CCCC[C@@H]2CCSS2)CC1` (stereo partly shown) [Compound 31], for which, in series [1] (t = 44), the “Aqueous Stability (DPBS) % parent released after t min” value is “A (t = 44) (<25%)”. The “Esterase (0.15 mg/mL) % parent released after 45 min” value in series [2] (setting [3]) is given as “C (NZW) (51% to 75%)”. For the same compound, in series [2] (setting [4]), the “Esterase (0.45 mg/mL) % parent released after 45 min” value is “C (NZW) (51% to 75%)”.

Turning to `CC(C)OC(=O)n1ccc2c(-c3cnn([C@H](CC#N)C4CCCC4)c3)ncnc21` [Compound 51], in series [1] (t = 45), the “Aqueous Stability (DPBS) % parent released after t min” value was “A (t = 45) (<25%)”. Also, the “Esterase (0.15 mg/mL) % parent released after 45 min” value in series [2] (setting [5]) is listed as “A (DB) (<25%)”. In addition, the “Esterase (0.45 mg/mL) % parent released after 45 min” value in series [2] (setting [6]) is “B (DB) (25% to 50%)”.

Turning to `CC(C)C(=O)n1ccc2c(-c3cnn([C@H](CC#N)C4CCCC4)c3)ncnc21` [Compound 49], the “Esterase (0.15 mg/mL) % parent released after 45 min” value in series [2] (setting [3]) is recorded as “D NZW) (>75%)”. Besides, the “Esterase (0.45 mg/mL) % parent released after 45 min” value in series [2] (setting [4]) was “D (NZW) (>75%)”.

Turning to `C=CC(=O)N1C[C@H](Nc2ncnc3c2ccn3C(=O)OC(C)C)CC[C@@H]1C` [Compound 23], in series [2] (setting [3]), the “Esterase (0.15 mg/mL) % parent released after 45 min” value is “A (NZW) (<25%)”. Moreover, the “Esterase (0.45 mg/mL) % parent released after 45 min” value in series [2] (setting [4]) is “A (NZW) (<25%)”.

Regarding `CC(=O)N[C@@H](CS)C(=O)O[C@]1(C(=O)OCC#N)[C@H](C)C[C@H]2[C@@H]3C[C@H](F)C4=CC(=O)C=C[C@]4(C)[C@@]3(F)[C@@H](O)C[C@@]21C` [Compound 73B, Cyanomethyl (6S,8S,9R,10S,11S,13S,14S,16R,17R)-17-((acetyl-L-cysteinyl)oxy)-6,9-difluoro-11-hydroxy-10,13,16-trimethyl-3-oxo-6,7,8,9,10,11,12,13,14,15,16,17dodecahydro-3H-cyclopenta[a]phenanthrene-17-carboxylate], the “Esterase (0.15 mg/mL) % parent released after 45 min” value in series [2] (Table 13, rabbit cornea homogenate 0.15 mg/mL, rabbit breed not given) is recorded as “A (<25%)”. For the same compound, the “Esterase (0.45 mg/mL) % parent released after 45 min” value in series [2] (Table 13, rabbit cornea homogenate 0.45 mg/mL, rabbit breed not given) is given as “A (<25%)”.

For `N#CC[C@@H](C1CCCC1)n1cc(-c2ncnc3c2ccn3C(=O)CCCC[C@@H]2CCSS2)cn1` [Compound 39], the “Aqueous Stability (DPBS) % parent released after t min” value in series [1] (t = 45) is “B (t = 45) (25% to 50%)”. Besides, the “Esterase (0.15 mg/mL) % parent released after 45 min” value in series [2] (setting [3]) is given as “B (NZW) (25% to 50%)”. Moreover, the “Esterase (0.45 mg/mL) % parent released after 45 min” value in series [2] (setting [4]) is listed as “C (NZW) (51% to 75%)”.

On to `N#CC[C@@H](C1CCCC1)n1cc(-c2ncnc3c2ccn3COC(=O)CCCC[C@@H]2CCSS2)cn1` [Compound 40], for which, in series [1] (t = 45), the “Aqueous Stability (DPBS) % parent released after t min” value is recorded as “A (t = 45) (<25%)”. In addition, the “Esterase (0.15 mg/mL) % parent released after 45 min” value in series [2] (setting [3]) is reported as “D (NZW) (>75%)”. For the same compound, the “Esterase (0.45 mg/mL) % parent released after 45 min” value in series [2] (setting [4]) is reported as “D (NZW) (>75%)”.

As to `C[C@]12C=CC(=O)C=C1CC[C@@H]1[C@@H]2[C@@H](O)C[C@@]2(C)[C@H]1CC[C@]2(OC(=O)CCCC[C@@H]1CCSS1)C(=O)OCCl` [Compound 59], the “Aqueous Stability (DPBS) T1/2 after t min” value in series [1] (t = 45) worked out at 31.6 min. For the same compound, the “Esterase (0.9 mg/mL) T1/2 (45 min)” value in series [2] (rabbit cornea homogenate 0.9 mg/mL, NZW, 37° C.) is given as 22.6 (NZW) min. In addition, the “Esterase (2.0 mg/mL) T1/2 (45 min)” value in series [2] (rabbit cornea homogenate 2.0 mg/mL, NZW, 37° C.) was 21.3 (NZW) min.
